{"source": "PubChem BioAssay (NCI)", "test_in_all_cases": "inhibition of tumour cell growth, NCI panel, 384-well format", "key": {"786-0 renal": {"tested_on": "786-0 renal"}, "SNB-19 CNS": {"tested_on": "SNB-19 CNS"}, "SF-295 CNS": {"tested_on": "SF-295 CNS"}, "IGROV1 ovarian": {"tested_on": "IGROV1 ovarian"}, "SW-620 colon": {"tested_on": "SW-620 colon"}, "HOP-62 NSCLC": {"tested_on": "HOP-62 NSCLC"}, "M14 melanoma": {"tested_on": "M14 melanoma"}, "UO-31 renal": {"tested_on": "UO-31 renal"}, "A498 renal": {"tested_on": "A498 renal"}, "MCF7 breast": {"tested_on": "MCF7 breast"}, "UACC-257 melanoma": {"tested_on": "UACC-257 melanoma"}, "SK-MEL-28 melanoma": {"tested_on": "SK-MEL-28 melanoma"}, "T-47D breast": {"tested_on": "T-47D breast"}, "DU-145 prostate": {"tested_on": "DU-145 prostate"}, "UACC-62 melanoma": {"tested_on": "UACC-62 melanoma"}, "RPMI-8226 leukemia": {"tested_on": "RPMI-8226 leukemia"}, "SN12C renal": {"tested_on": "SN12C renal"}, "HS 578T breast": {"tested_on": "HS 578T breast"}, "TK-10 renal": {"tested_on": "TK-10 renal"}, "CAKI-1 renal": {"tested_on": "CAKI-1 renal"}, "OVCAR-4 ovarian": {"tested_on": "OVCAR-4 ovarian"}, "LOX IMVI melanoma": {"tested_on": "LOX IMVI melanoma"}, "OVCAR-5 ovarian": {"tested_on": "OVCAR-5 ovarian"}, "SNB-75 CNS": {"tested_on": "SNB-75 CNS"}, "SF-268 CNS": {"tested_on": "SF-268 CNS"}, "MOLT-4 leukemia": {"tested_on": "MOLT-4 leukemia"}, "KM12 colon": {"tested_on": "KM12 colon"}, "MDA-MB-231 breast": {"tested_on": "MDA-MB-231 breast"}, "MDA-MB-468 breast": {"tested_on": "MDA-MB-468 breast"}, "NCI-H322M lung": {"tested_on": "NCI-H322M lung"}, "RXF 393 renal": {"tested_on": "RXF 393 renal"}, "PC-3 prostate": {"tested_on": "PC-3 prostate"}, "COLO 205 colon": {"tested_on": "COLO 205 colon"}, "ACHN renal": {"tested_on": "ACHN renal"}, "OVCAR-3 ovarian": {"tested_on": "OVCAR-3 ovarian"}, "U251 glioblastoma": {"tested_on": "U251 glioblastoma"}, "HCC-2998 colon": {"tested_on": "HCC-2998 colon"}, "EKVX NSCLC": {"tested_on": "EKVX NSCLC"}, "OVCAR-8 ovarian": {"tested_on": "OVCAR-8 ovarian"}, "SF-539 CNS": {"tested_on": "SF-539 CNS"}, "HL-60(TB) leukemia": {"tested_on": "HL-60(TB) leukemia"}, "HCT-15 colon": {"tested_on": "HCT-15 colon"}, "SK-OV-3 ovarian": {"tested_on": "SK-OV-3 ovarian"}, "BT-549 breast": {"tested_on": "BT-549 breast"}, "NCI-H23 lung": {"tested_on": "NCI-H23 lung"}, "K-562 leukemia": {"tested_on": "K-562 leukemia"}, "NCI-H522 lung": {"tested_on": "NCI-H522 lung"}}, "note": "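GI50 is the concentration that inhibits growth by half. At the TGI there is no net growth.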", "data": [{"compound": "COc1nn(C)cc1Nc1nccc(-c2c[nH]c3c(NC(=O)[C@@H](C)N4CCN(C)CC4)cccc23)n1", "values": [{"measurement": "GI50", "setting": "786-0 renal", "value": 18.4, "unit": "µM"}, {"measurement": "TGI", "setting": "786-0 renal", "value": 41.5, "unit": "µM"}, {"measurement": "GI50", "setting": "SNB-19 CNS", "value": 41.2, "unit": "µM"}, {"measurement": "TGI", "setting": "SNB-19 CNS", "value": "> 100", "unit": "µM"}, {"measurement": "GI50", "setting": "SF-295 CNS", "value": 28.1, "unit": "µM"}, {"measurement": "TGI", "setting": "SF-295 CNS", "value": "> 61.6", "unit": "µM"}, {"measurement": "GI50", "setting": "IGROV1 ovarian", "value": 18.8, "unit": "µM"}, {"measurement": "TGI", "setting": "IGROV1 ovarian", "value": 52.4, "unit": "µM"}, {"measurement": "GI50", "setting": "SW-620 colon", "value": 21, "unit": "µM"}, {"measurement": "TGI", "setting": "SW-620 colon", "value": 40.3, "unit": "µM"}, {"measurement": "GI50", "setting": "HOP-62 NSCLC", "value": 29.7, "unit": "µM"}, {"measurement": "TGI", "setting": "HOP-62 NSCLC", "value": "> 89.1", "unit": "µM"}, {"measurement": "GI50", "setting": "M14 melanoma", "value": 16.1, "unit": "µM"}, {"measurement": "TGI", "setting": "M14 melanoma", "value": 31.2, "unit": "µM"}, {"measurement": "GI50", "setting": "UO-31 renal", "value": 17.3, "unit": "µM"}, {"measurement": "TGI", "setting": "UO-31 renal", "value": 32.5, "unit": "µM"}, {"measurement": "GI50", "setting": "A498 renal", "value": 14.2, "unit": "µM"}, {"measurement": "TGI", "setting": "A498 renal", "value": "> 60.4", "unit": "µM"}, {"measurement": "GI50", "setting": "MCF7 breast", "value": 18, "unit": "µM"}, {"measurement": "TGI", "setting": "MCF7 breast", "value": "> 71.9", "unit": "µM"}, {"measurement": "GI50", "setting": "UACC-257 melanoma", "value": 16.9, "unit": "µM"}, {"measurement": "TGI", "setting": "UACC-257 melanoma", "value": 30.7, "unit": "µM"}, {"measurement": "GI50", "setting": "SK-MEL-28 melanoma", "value": 26.9, "unit": "µM"}, {"measurement": "TGI", "setting": "SK-MEL-28 melanoma", "value": "> 66.1", "unit": "µM"}, {"measurement": "GI50", "setting": "T-47D breast", "value": 29, "unit": "µM"}, {"measurement": "TGI", "setting": "T-47D breast", "value": "> 89.4", "unit": "µM"}, {"measurement": "GI50", "setting": "DU-145 prostate", "value": 40.4, "unit": "µM"}, {"measurement": "TGI", "setting": "DU-145 prostate", "value": "> 100", "unit": "µM"}, {"measurement": "GI50", "setting": "UACC-62 melanoma", "value": 17.7, "unit": "µM"}, {"measurement": "TGI", "setting": "UACC-62 melanoma", "value": 38.2, "unit": "µM"}, {"measurement": "GI50", "setting": "RPMI-8226 leukemia", "value": 11.2, "unit": "µM"}, {"measurement": "TGI", "setting": "RPMI-8226 leukemia", "value": 26.6, "unit": "µM"}, {"measurement": "GI50", "setting": "SN12C renal", "value": 26, "unit": "µM"}, {"measurement": "TGI", "setting": "SN12C renal", "value": "> 100", "unit": "µM"}, {"measurement": "GI50", "setting": "HS 578T breast", "value": 13, "unit": "µM"}, {"measurement": "TGI", "setting": "HS 578T breast", "value": 25.9, "unit": "µM"}, {"measurement": "GI50", "setting": "TK-10 renal", "value": 20.5, "unit": "µM"}, {"measurement": "TGI", "setting": "TK-10 renal", "value": "> 60", "unit": "µM"}, {"measurement": "GI50", "setting": "CAKI-1 renal", "value": 11.7, "unit": "µM"}, {"measurement": "TGI", "setting": "CAKI-1 renal", "value": 28.6, "unit": "µM"}, {"measurement": "GI50", "setting": "OVCAR-4 ovarian", "value": 30.2, "unit": "µM"}, {"measurement": "TGI", "setting": "OVCAR-4 ovarian", "value": "> 62.1", "unit": "µM"}, {"measurement": "GI50", "setting": "LOX IMVI melanoma", "value": 15.1, "unit": "µM"}, {"measurement": "TGI", "setting": "LOX IMVI melanoma", "value": 28.4, "unit": "µM"}, {"measurement": "GI50", "setting": "OVCAR-5 ovarian", "value": 25.1, "unit": "µM"}, {"measurement": "TGI", "setting": "OVCAR-5 ovarian", "value": 65.2, "unit": "µM"}, {"measurement": "GI50", "setting": "SNB-75 CNS", "value": 17.7, "unit": "µM"}, {"measurement": "TGI", "setting": "SNB-75 CNS", "value": 32, "unit": "µM"}, {"measurement": "GI50", "setting": "SF-268 CNS", "value": 18.4, "unit": "µM"}, {"measurement": "TGI", "setting": "SF-268 CNS", "value": 37, "unit": "µM"}, {"measurement": "GI50", "setting": "MOLT-4 leukemia", "value": 13.2, "unit": "µM"}, {"measurement": "TGI", "setting": "MOLT-4 leukemia", "value": 26.4, "unit": "µM"}, {"measurement": "GI50", "setting": "KM12 colon", "value": 20.1, "unit": "µM"}, {"measurement": "TGI", "setting": "KM12 colon", "value": 61.2, "unit": "µM"}, {"measurement": "GI50", "setting": "MDA-MB-231 breast", "value": 28, "unit": "µM"}, {"measurement": "TGI", "setting": "MDA-MB-231 breast", "value": "> 95.5", "unit": "µM"}, {"measurement": "GI50", "setting": "MDA-MB-468 breast", "value": 15.1, "unit": "µM"}, {"measurement": "TGI", "setting": "MDA-MB-468 breast", "value": 30.9, "unit": "µM"}, {"measurement": "GI50", "setting": "NCI-H322M lung", "value": "> 52.3", "unit": "µM"}, {"measurement": "TGI", "setting": "NCI-H322M lung", "value": "> 100", "unit": "µM"}, {"measurement": "GI50", "setting": "RXF 393 renal", "value": 14.9, "unit": "µM"}, {"measurement": "TGI", "setting": "RXF 393 renal", "value": 30.6, "unit": "µM"}, {"measurement": "GI50", "setting": "PC-3 prostate", "value": 23.1, "unit": "µM"}, {"measurement": "TGI", "setting": "PC-3 prostate", "value": 86, "unit": "µM"}, {"measurement": "GI50", "setting": "COLO 205 colon", "value": 20.5, "unit": "µM"}, {"measurement": "TGI", "setting": "COLO 205 colon", "value": 36.9, "unit": "µM"}, {"measurement": "GI50", "setting": "ACHN renal", "value": 21.3, "unit": "µM"}, {"measurement": "TGI", "setting": "ACHN renal", "value": "> 67.2", "unit": "µM"}, {"measurement": "GI50", "setting": "OVCAR-3 ovarian", "value": 18.7, "unit": "µM"}, {"measurement": "TGI", "setting": "OVCAR-3 ovarian", "value": 51.2, "unit": "µM"}, {"measurement": "GI50", "setting": "U251 glioblastoma", "value": 27.8, "unit": "µM"}, {"measurement": "TGI", "setting": "U251 glioblastoma", "value": 75.8, "unit": "µM"}, {"measurement": "GI50", "setting": "HCC-2998 colon", "value": 19.5, "unit": "µM"}, {"measurement": "TGI", "setting": "HCC-2998 colon", "value": 37.3, "unit": "µM"}, {"measurement": "GI50", "setting": "EKVX NSCLC", "value": 18.7, "unit": "µM"}, {"measurement": "TGI", "setting": "EKVX NSCLC", "value": 49.5, "unit": "µM"}, {"measurement": "GI50", "setting": "OVCAR-8 ovarian", "value": 45.1, "unit": "µM"}, {"measurement": "TGI", "setting": "OVCAR-8 ovarian", "value": "> 76.3", "unit": "µM"}, {"measurement": "GI50", "setting": "SF-539 CNS", "value": 14.8, "unit": "µM"}, {"measurement": "TGI", "setting": "SF-539 CNS", "value": 30.3, "unit": "µM"}, {"measurement": "GI50", "setting": "HL-60(TB) leukemia", "value": 11.8, "unit": "µM"}, {"measurement": "TGI", "setting": "HL-60(TB) leukemia", "value": 24.1, "unit": "µM"}, {"measurement": "GI50", "setting": "HCT-15 colon", "value": 18.7, "unit": "µM"}, {"measurement": "TGI", "setting": "HCT-15 colon", "value": 51.7, "unit": "µM"}, {"measurement": "GI50", "setting": "SK-OV-3 ovarian", "value": 9.78, "unit": "µM"}, {"measurement": "TGI", "setting": "SK-OV-3 ovarian", "value": 31.6, "unit": "µM"}, {"measurement": "GI50", "setting": "BT-549 breast", "value": 17.2, "unit": "µM"}, {"measurement": "TGI", "setting": "BT-549 breast", "value": 32.4, "unit": "µM"}, {"measurement": "GI50", "setting": "NCI-H23 lung", "value": 17.4, "unit": "µM"}, {"measurement": "TGI", "setting": "NCI-H23 lung", "value": 42.3, "unit": "µM"}, {"measurement": "GI50", "setting": "K-562 leukemia", "value": 10.5, "unit": "µM"}, {"measurement": "TGI", "setting": "K-562 leukemia", "value": 26.5, "unit": "µM"}, {"measurement": "GI50", "setting": "NCI-H522 lung", "value": 10.2, "unit": "µM"}, {"measurement": "TGI", "setting": "NCI-H522 lung", "value": 26.5, "unit": "µM"}]}]}
